Assay type in all cases: cell-based
For assay [1], the target named is T1, α4β7 integrin (Homo sapiens (Human), UniProt P13612+P26010). Briefly: MAdCAM-1/α4β7 integrin binding inhibitory activity evaluation test (RPMI-8866 cell adhesion to MAdCAM-1/Fc). Conditions: for Selectivity: IC50 in VCAM-1/α4β1 test divided by IC50 in MAdCAM-1/α4β7 test; for IC50: RPMI-8866 cells binding to recombinant mouse MAdCAM-1/Fc, no serum. In a few lines: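 Human RPMI-8866 cells (α4β7+) adhered for 15–60 min at 30 °C to plates coated with recombinant mouse MAdCAM-1/Fc, in DMEM binding buffer with 4 mM MnCl2 and test compound. Bound cells were quantified via LDH activity (A490) after lysis. IC50 is the 50% inhibition of binding relative to compound-free wells.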

In assay [2] the target is T1, α4β7 integrin. The assay is described as follows: MAdCAM-1/α4β7 integrin binding inhibitory activity evaluation test in the presence of serum (1). As to conditions: RPMI-8866 cells binding to mouse MAdCAM-1/Fc, human serum at final concentration of 50%; read-out: α4β7 with serum added, IC50. Put shortly:
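Plates were coated with recombinant mouse MAdCAM-1/Fc (1 μg/mL, pH 9.6). Human RPMI-8866 B cells (α4β7-expressing) bound for 15–60 min at 30 °C in DMEM/HEPES/BSA with 4 mM MnCl2 and 50% human serum, with test substance present. Bound cells were quantified by LDH absorbance at 490 nm, run in duplicate, and IC50 was calculated relative to no-compound wells.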

Another assay has as its target α4β1 integrin (Homo sapiens (Human), UniProt P05556+P13612). Briefly: VCAM-1/α4β1 integrin binding inhibitory activity evaluation test (Jurkat cell adhesion to VCAM-1/Fc). Conditions: Jurkat cells binding to recombinant human VCAM-1/Fc. Put shortly:
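Jurkat cells (5×10^5/well) added with compounds to plates coated with recombinant human VCAM-1/Fc (1 μg/mL coating), in DMEM binding buffer with 40 mM HEPES, 0.2% BSA and 4 mM MnCl2, 15-60 min at 30° C. Bound cells lysed and quantified by LDH absorbance at 490 nm; IC50 relative to compound-free wells, in duplicate.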

T1 sequence (P13612 34-1032): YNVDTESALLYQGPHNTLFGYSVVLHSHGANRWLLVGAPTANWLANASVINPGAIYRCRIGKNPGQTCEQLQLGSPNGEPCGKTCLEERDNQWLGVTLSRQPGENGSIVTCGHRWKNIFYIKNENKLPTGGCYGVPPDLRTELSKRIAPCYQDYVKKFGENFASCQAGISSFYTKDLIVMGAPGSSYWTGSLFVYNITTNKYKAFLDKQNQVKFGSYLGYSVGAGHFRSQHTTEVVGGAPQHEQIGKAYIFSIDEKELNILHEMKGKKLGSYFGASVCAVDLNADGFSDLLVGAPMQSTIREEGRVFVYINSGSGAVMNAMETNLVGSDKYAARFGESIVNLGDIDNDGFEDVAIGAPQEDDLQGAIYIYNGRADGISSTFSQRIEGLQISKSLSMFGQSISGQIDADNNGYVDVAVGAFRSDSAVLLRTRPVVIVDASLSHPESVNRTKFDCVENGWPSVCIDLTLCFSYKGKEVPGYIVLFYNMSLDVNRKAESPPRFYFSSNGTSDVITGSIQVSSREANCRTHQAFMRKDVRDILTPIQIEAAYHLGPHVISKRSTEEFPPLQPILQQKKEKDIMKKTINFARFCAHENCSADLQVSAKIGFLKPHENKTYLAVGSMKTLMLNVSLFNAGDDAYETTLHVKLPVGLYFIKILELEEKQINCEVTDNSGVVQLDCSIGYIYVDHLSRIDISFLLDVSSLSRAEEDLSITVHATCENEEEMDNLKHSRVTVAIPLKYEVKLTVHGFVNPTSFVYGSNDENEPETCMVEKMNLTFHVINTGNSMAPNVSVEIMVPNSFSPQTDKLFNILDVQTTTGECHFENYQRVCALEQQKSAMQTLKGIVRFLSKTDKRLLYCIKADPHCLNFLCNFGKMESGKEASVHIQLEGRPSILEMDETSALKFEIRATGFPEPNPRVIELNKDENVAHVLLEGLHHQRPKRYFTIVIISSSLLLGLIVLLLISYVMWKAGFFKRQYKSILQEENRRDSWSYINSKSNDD
T1 sequence (P26010 20-798): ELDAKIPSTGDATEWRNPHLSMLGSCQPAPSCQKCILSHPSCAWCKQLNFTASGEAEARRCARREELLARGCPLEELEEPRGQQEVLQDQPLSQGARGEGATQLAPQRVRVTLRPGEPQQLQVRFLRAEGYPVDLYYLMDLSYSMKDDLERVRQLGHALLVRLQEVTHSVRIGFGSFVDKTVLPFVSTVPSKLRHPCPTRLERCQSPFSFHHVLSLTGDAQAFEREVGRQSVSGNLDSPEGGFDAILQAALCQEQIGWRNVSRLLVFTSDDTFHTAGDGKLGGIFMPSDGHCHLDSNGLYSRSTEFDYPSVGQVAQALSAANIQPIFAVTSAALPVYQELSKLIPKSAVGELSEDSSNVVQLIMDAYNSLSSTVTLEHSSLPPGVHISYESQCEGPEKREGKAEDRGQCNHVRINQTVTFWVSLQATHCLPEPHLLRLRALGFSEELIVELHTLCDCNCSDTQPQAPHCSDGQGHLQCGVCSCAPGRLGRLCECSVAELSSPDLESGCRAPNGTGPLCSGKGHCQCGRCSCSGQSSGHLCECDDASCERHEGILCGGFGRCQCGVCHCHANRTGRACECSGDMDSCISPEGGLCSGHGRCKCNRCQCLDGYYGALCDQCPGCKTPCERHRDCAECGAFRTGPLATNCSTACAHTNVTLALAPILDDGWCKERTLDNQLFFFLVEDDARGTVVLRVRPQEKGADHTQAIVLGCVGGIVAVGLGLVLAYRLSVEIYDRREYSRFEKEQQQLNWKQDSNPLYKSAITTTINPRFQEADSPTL
Sequence of α4β1 integrin (P13612 34-1032): as the sequence (P13612 34-1032) above
Sequence of α4β1 integrin (P05556 21-798): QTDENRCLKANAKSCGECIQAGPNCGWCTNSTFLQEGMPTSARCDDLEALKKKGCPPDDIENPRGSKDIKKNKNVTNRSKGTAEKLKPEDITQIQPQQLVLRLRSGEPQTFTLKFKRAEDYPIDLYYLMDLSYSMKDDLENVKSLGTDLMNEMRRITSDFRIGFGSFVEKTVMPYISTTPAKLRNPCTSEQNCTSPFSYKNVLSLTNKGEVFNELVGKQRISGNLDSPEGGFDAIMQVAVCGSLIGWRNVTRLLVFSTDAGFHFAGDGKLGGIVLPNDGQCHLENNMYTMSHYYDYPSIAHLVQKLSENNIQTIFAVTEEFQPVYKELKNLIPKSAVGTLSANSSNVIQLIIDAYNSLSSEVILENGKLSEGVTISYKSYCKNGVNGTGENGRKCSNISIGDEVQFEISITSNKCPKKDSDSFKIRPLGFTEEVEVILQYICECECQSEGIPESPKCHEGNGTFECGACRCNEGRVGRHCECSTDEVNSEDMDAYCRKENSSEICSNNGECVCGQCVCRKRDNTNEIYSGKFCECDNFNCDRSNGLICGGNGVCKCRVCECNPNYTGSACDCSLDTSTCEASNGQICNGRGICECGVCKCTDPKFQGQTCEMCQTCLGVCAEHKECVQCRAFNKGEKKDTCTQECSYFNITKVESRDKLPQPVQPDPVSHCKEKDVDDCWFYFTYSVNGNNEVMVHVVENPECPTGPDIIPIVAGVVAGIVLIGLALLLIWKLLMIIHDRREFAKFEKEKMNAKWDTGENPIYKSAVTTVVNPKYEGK

For the compound `Cn1ccc(=O)n(-c2ccc(C[C@H](NC(=O)c3c(F)cc(NS(=O)(=O)c4ccc(-c5cncnc5)cc4)cc3F)C(=O)O)cc2)c1=O` [Example 60, N-(2,6-Difluoro-4-{[(4-pyrimidin-5-yl-phenyl)sulfonyl]amino}benzoyl)-4-(3-methyl-2,6-dioxo-3,6-dihydropyrimidin-1 (2H)-yl)-L-phenylalanine], the Selectivity on α4β7 integrin [1] is listed as 1100. The results for the half-inhibitory concentration (IC50) at α4β7 integrin [1], on α4β7 integrin [2] and at α4β1 integrin were 1.1 nM, 5.5 nM and 1200 nM, respectively.

`Cn1c(=O)n(-c2ccc(C[C@H](NC(=O)c3c(F)cc(NS(=O)(=O)c4ccc(-c5ccoc5)cc4)cc3F)C(=O)O)cc2)c(=O)c2ccncc21` [Example 66, N-[2,6-Difluoro-4-({[4-(3-furyl)phenyl]sulfonyl}amino)benzoyl]-4-(1-methyl-2,4-dioxo-1,4-dihydropyrido[3,4-d]pyrimidin-3(2H)-yl)-L-phenylalanine]: at α4β7 integrin [1], the Selectivity was determined as 180. The half-maximal inhibitory concentration (IC50) on α4β7 integrin [1] was determined as 1.6 nM; on α4β7 integrin [2], 24 nM; at α4β1 integrin it was 280 nM.

With `CN(C)c1ccc2c(c1)c(=O)n(-c1ccc(C[C@H](NC(=O)c3c(F)cc(NS(=O)(=O)c4ccc(-n5cncn5)cc4)cc3F)C(=O)O)cc1)c(=O)n2C` [Example 47, N-[2,6-Difluoro-4-({[4-(1H-1,2,4-triazol-1-yl)phenyl]sulfonyl}amino)benzoyl]-4-[6-(dimethylamino)-1-methyl-2,4-dioxo-1,4-dihydroquinazolin-3(2H)-yl]-L-phenylalanine], the Selectivity on α4β7 integrin [1] was found to be 1100. Further, the IC50 is 0.32 nM on α4β7 integrin [1], 20 nM at α4β7 integrin [2] and 340 nM at α4β1 integrin.

With `Cn1ccc(=O)n(-c2ccc(C[C@H](NC(=O)c3c(F)cc(NS(=O)(=O)c4ccc(-n5nccn5)cn4)cc3F)C(=O)O)cc2)c1=O` [Example 72, N-[2,6-Difluoro-4-({[5-(2H-1,2,3-triazol-2-yl)pyridin-2-yl]sulfonyl}amino)benzoyl]-4-(3-methyl-2,6-dioxo-3,6-dihydropyrimidin-1(2H)-yl)-L-phenylalanine], the Selectivity on α4β7 integrin [1] is recorded as 250. The figures for the half-maximal inhibitory concentration (IC50) at α4β7 integrin [1], at α4β7 integrin [2] and at α4β1 integrin were 1.6 nM, 23 nM and 400 nM, respectively.

`Cn1ccc(=O)n(-c2ccc(C[C@H](NC(=O)c3c(F)cc(NS(=O)(=O)c4ccc(-c5cncnc5)cn4)cc3F)C(=O)O)cc2)c1=O` [Example 63, N-(2,6-Difluoro-4-{[(5-pyrimidin-5-yl-pyridin-2-yl)sulfonyl]amino}benzoyl)-4-(3-methyl-2,6-dioxo-3,6-dihydropyrimidin-1(2H)-yl)-L-phenylalanine]: the Selectivity on α4β7 integrin [1] is 600. Further, the figures for the concentration for half-maximal inhibition (IC50) at α4β7 integrin [1], on α4β7 integrin [2] and at α4β1 integrin were 0.8 nM, 11 nM and 480 nM, respectively.

As for `Cn1cnc2c1c(=O)n(-c1ccc(C[C@H](NC(=O)c3c(F)cc(NS(=O)(=O)c4ccc(-c5ncccn5)cc4)cc3F)C(=O)O)cc1)c(=O)n2C` [Example 77, N-(2,6-Difluoro-4-{[(4-pyrimidin-2-yl-phenyl)sulfonyl]amino}benzoyl)-4-(3,7-dimethyl-2,6-dioxo-2,3,6,7-tetrahydro-1H-purin-1-yl)-L-phenylalanine], the Selectivity on α4β7 integrin [1] came to 560. For the same compound, the IC50 at α4β7 integrin [1] worked out at 0.27 nM; on α4β7 integrin [2], 9.1 nM; on α4β1 integrin, 150 nM.

As to `Cn1ccc(=O)n(-c2ccc(C[C@H](NC(=O)c3c(F)cc(NS(=O)(=O)c4ccc(-n5cccc5)cc4)cc3F)C(=O)O)cc2)c1=O` [Example 64, N-[2,6-Difluoro-4-({[4-(1H-pyrrol-1-yl)phenyl]sulfonyl}amino)benzoyl]-4-(3-methyl-2,6-dioxo-3,6-dihydropyrimidin-1(2H)-yl)-L-phenylalanine], the Selectivity at α4β7 integrin [1] stood at 750. Moreover, the IC50 on α4β7 integrin [1] worked out at 2 nM; at α4β7 integrin [2] it was 22 nM; on α4β1 integrin it was 1500 nM.

The IC50 is the concentration that gives 50% inhibition.

Values taken from US9533985B2, “Sulfonamide derivative and medicinal use thereof” (EA Pharma Co., Ltd., priority 2012, dated 2017).
